Assay results from patent publication EP4714952A1, “COMPOUND AND USE THEREOF” (Autobio Group Co., Ltd., priority 2023, dated 2025).
Structures can show the parent of a compound that is named as a salt. Where two headings read alike, the source gives them in different places.

How the values were obtained:
PDE4B1 = molecular target: T1, PDE4B1 (Homo sapiens, UniProt Q07343); assay: In vitro inhibitory effect on PDE4B1 enzyme (AMP-Glo assay); assay type: biochemical
T1 construct: purchased Sigma
Procedure: (§1) 1. Table 1 Main reagents and consumables for in vitro detection of inhibitory effect
(§2) 2. Preparation of experimental buffers Reaction buffer (5×): 50 mM Tris-HCl (buffer), 50 mM MgCl2, 0.5% BSA, 0.25% Tween-20, pH 7.4, stored at -20°C. 3. […] The starting concentration of the reference substance serial dilution was the Low control, and 1% DMSO-reaction buffer served as the High control. • 3) The enzyme was diluted to the desired concentration with 1× reaction buffer, and 4 µL of the diluted solution was transferred to the assay plate. After centrifugation, the 384-well low dead-volume microplate was sealed with sealing film and incubated in the incubator at 23°C for 15 minutes. • 4) The substrate cAMP was diluted to the desired concentration using 1× reaction buffer, and 5 µL of the diluted solution was transferred to the assay plate. After centrifugation, the plate was sealed again and incubated in the incubator at 23°C for 60 minutes (PDE3A) or 10 minutes (PDE4B1). • 5) Then, 5 µL of Reagent I from the AMP-Glo™ Assay Kit was added to the assay plate. After centrifugation and sealing, the plate was incubated in the incubator at 23°C for 60 minutes. • 6) The detection solution was prepared according to the AMP-Glo™ Assay Kit instructions, and 10 µL of the detection solution was added to the assay plate. After centrifugation and sealing, the plate was incubated in the incubator at 23°C for 60 minutes. • 7) The readout was recorded using a multimode microplate reader. 4. […] 5.

PDE3A = molecular target: T2, PDE3A (Homo sapiens, UniProt Q14432); assay: In vitro inhibitory effect on PDE3A enzyme (AMP-Glo assay); assay type: biochemical
T2 construct: purchased BPS
Procedure: as §1, §2

[1] = AMP-Glo Assay Kit, substrate cAMP, 23°C, 10 minutes, read-out: PDE4B1 (IC50)
[2] = AMP-Glo Assay Kit, substrate cAMP, 23°C, 60 minutes, read-out: PDE3A (IC50)

T2 sequence (Q14432 whole entry): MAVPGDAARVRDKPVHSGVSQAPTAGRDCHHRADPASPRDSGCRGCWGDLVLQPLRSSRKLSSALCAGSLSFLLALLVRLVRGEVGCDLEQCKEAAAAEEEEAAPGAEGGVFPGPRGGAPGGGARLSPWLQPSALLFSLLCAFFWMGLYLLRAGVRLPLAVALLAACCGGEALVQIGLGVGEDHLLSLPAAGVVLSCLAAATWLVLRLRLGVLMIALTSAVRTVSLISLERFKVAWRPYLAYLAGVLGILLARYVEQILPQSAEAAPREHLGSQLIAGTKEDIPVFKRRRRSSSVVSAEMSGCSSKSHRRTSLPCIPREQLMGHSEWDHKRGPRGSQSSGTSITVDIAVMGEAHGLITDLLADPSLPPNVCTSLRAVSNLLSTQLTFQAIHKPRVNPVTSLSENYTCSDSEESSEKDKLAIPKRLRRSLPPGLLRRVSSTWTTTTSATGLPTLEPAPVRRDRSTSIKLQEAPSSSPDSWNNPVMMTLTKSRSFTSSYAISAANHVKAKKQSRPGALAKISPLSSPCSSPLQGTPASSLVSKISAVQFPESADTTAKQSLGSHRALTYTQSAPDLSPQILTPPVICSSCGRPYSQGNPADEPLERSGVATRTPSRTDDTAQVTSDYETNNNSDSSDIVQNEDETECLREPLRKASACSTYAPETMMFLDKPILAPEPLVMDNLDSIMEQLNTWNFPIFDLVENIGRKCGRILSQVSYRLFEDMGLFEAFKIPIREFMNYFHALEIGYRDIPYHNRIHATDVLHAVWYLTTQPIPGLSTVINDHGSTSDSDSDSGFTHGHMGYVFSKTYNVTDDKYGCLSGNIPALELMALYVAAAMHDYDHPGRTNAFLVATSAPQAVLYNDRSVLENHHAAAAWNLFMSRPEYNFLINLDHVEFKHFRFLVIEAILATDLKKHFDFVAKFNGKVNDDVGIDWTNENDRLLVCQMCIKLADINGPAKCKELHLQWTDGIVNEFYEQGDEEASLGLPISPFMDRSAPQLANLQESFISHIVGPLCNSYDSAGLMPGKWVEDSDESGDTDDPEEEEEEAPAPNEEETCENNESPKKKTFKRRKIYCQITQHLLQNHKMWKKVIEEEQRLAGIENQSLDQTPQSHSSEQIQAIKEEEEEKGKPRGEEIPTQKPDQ
T1 sequence (Q07343 whole entry): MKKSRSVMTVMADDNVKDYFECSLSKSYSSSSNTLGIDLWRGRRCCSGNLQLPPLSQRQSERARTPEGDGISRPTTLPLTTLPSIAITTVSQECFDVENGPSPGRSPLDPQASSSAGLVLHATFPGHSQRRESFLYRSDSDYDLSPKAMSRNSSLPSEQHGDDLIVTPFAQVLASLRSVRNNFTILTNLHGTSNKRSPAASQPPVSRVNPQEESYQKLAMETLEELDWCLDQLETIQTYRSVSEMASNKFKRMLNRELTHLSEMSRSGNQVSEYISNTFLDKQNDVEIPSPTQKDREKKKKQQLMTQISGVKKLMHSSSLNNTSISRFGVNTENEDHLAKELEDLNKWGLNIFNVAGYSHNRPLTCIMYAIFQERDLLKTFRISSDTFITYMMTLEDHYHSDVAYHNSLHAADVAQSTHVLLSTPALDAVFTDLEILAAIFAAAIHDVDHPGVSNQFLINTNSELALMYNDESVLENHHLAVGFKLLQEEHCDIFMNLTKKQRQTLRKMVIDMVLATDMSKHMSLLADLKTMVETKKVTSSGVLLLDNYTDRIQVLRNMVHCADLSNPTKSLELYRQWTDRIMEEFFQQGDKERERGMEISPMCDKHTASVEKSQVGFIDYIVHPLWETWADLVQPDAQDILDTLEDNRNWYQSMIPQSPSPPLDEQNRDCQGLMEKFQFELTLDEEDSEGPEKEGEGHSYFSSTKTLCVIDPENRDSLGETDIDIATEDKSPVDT

Row | IC50 (PDE4B1; [1]) [nM] | IC50 (PDE3A; [2]) [nM] | Structure (SMILES) | IC50 (PDE4B1) [nM] | IC50 (PDE3A) [nM]
1 | 8.9 | 0.027 | CCOc1cc2c(cc1OC)-c1cc(N(CCC(N)C(F)(F)F)c3c(C)cc(C)cc3C)nc(=O)n1CC2 (stereo not shown) [Compound 78] | – | –
2 | – | – | COc1cc2c(cc1OC)-c1cc(N(CCNC(=O)c3c(O)nnn3C)c3c(C)cc(C)cc3C)nc(=O)n1CC2 [Compound 44] | 223 | 0.081
3 | – | – | CCOc1cc2c(cc1OC)CCn1c-2cc(=Nc2c(C)cc(C)cc2C)n(CCNC(N)=O)c1=O [Compound 12] | 337 | 7.45
4 | – | – | COc1cc2c(cc1OC)-c1cc(=Nc3c(C)cc(C)cc3C)n(CCNC(=O)c3cccn(C4CC4)c3=O)c(=O)n1CC2 [Compound 41] | 250 | 1.14
5 | – | – | CCOc1cc2c(cc1OC)-c1cc(=Nc3c(C)cc(C)cc3C)n(CCNC(=O)c3c(O)nnn3C)c(=O)n1CC2 [Compound 23] | 12.9 | 0.0058
6 | – | – | CCOc1cc2c(cc1OC)-c1cc(N(c3c(C)cc(C)cc3C)C3CC(NC(=O)c4c(O)nnn4C)C3)nc(=O)n1CC2 (stereo not shown) [Compound 31] | 193 | 0.57
7 | – | – | CCOc1cc2c(cc1OC)-c1cc(=Nc3c(C)cc(C)cc3C)n(CCNC(=O)c3cc[nH]c(=O)c3)c(=O)n1CC2 [Compound 30] | 26.3 | 3.23
8 | 918 | 2.16 | COc1cc2c(cc1OCC1CC1)CCn1c-2cc(=Nc2c(C)cc(C)cc2C)n(CCNC(=O)c2c(O)nnn2C)c1=O [Compound 27] | – | –
9 | – | – | CCOc1cc2c(cc1OC)-c1cc(=Nc3c(C)cc(C)cc3C)n(CCNC(=O)c3ccnn(C)c3=O)c(=O)n1CC2 [Compound 59] | 27.6 | 0.76
10 | 5000 | 0.54 | COc1cc2c(cc1OC)-c1cc(=Nc3c(C)cc(C)cc3C)n(CCC(C)(C)O)c(=O)n1CC2 [Compound 17] | – | –
11 | – | 6.63 | CNCCn1c(=Nc2c(C)cc(C)cc2C)cc2n(c1=O)CCc1cc(OC)c(OC)cc1-2 [Compound 16] | – | –
12 | – | 325 | COc1cc2c(cc1OC)-c1cc(N(c3c(C)cc(C)cc3C)C3CN(C(=O)c4cnc[nH]4)C3)nc(=O)n1CC2 [Compound 49] | – | –
13 | – | – | COc1cc2c(cc1OC)-c1cc(=Nc3c(C)cc(C)cc3C)n(CCNC(=O)c3cccn(CC(F)(F)F)c3=O)c(=O)n1CC2 [Compound 55] | 262 | 0.49
14 | – | – | CONC(=O)NCCn1c(=Nc2c(C)cc(C)cc2C)cc2n(c1=O)CCc1cc(OC)c(OC)cc1-2 [Compound 8] | 377 | 0.86
15 | – | – | COc1cc2c(cc1OC)-c1cc(=Nc3c(C)cc(C)cc3F)n(CCNC(N)=O)c(=O)n1CC2 [Compound 66] | 268 | 0.64
16 | – | – | COc1cc2c(cc1OC)-c1cc(=Nc3c(C)cc(C)cc3C)n(CCNC(=O)OCC(O)CCO)c(=O)n1CC2 (stereo not shown) [Compound 69] | 6750 | 1.91
17 | 64.4 | 0.33 | CCOc1cc2c(cc1OC)-c1cc(N(CCCN)c3c(C)cc(C)cc3C)nc(=O)n1CC2 [Compound 81] | – | –
18 | – | – | COc1cc2c(cc1OC)-c1cc(=Nc3c(C)cc(C)cc3C)n(CCNC(N)=O)c(=O)n1CCO2 [Compound 22] | 728 | 3.3
19 | 37.3 | 0.043 | CCOc1cc2c(cc1OC)-c1cc(N(CCNC(=O)N3CCOCC3CO)c3c(C)cc(C)cc3C)nc(=O)n1CC2 (stereo not shown) [Compound 83] | – | –
20 | – | – | COc1cc2c(cc1OC1CCN(C)C1)CCn1c-2cc(=Nc2c(C)cc(C)cc2C)n(CCNC(N)=O)c1=O (stereo not shown) [Compound 37] | – | 60.1
21 | – | – | COc1cc2c(cc1OC)-c1cc(N(CCNC(=O)N3CCOCC3CO)c3c(C)cc(C)cc3C)nc(=O)n1CC2 (stereo not shown) [Compound 48] | 579 | 0.16
22 | 1450 | 89.5 | COc1cc2c(cc1OC)-c1cc(N(c3c(C)cc(C)cc3C)C3CN(C(=O)c4ncon4)C3)nc(=O)n1CC2 [Compound 51] | – | –
23 | 8.1 | 0.05 | CCOc1cc2c(cc1OC)-c1cc(N(CCN3CC(F)C3)c3c(C)cc(C)cc3C)nc(=O)n1CC2 [Compound 74] | – | –
24 | – | – | CCOc1cc2c(cc1OC)-c1cc(N(CCN)c3c(C)cc(C)cc3C)nc(=O)n1CC2 [Compound 42] | 75.3 | 0.62
25 | 414 | 0.53 | CCOc1cc2c(cc1OC)-c1cc(=Nc3c(C)cc(C)cc3C)n(CCN3CCS(=O)(=O)CC3)c(=O)n1CC2 [Compound 73] | – | –
26 | – | – | COc1cc2c(cc1OC)-c1cc(=Nc3c(C)cc(C)cc3C)n(CCNC(=O)N3Cc4cn(C5CC5)nc4C3)c(=O)n1CC2 [Compound 68] | 334 | 1.82

Row | IC50 (PDE4B1; [1]) [nM] | IC50 (PDE3A; [2]) [nM] | Structure (SMILES) | IC50 (PDE4B1) [nM] | IC50 (PDE3A) [nM]
27 | – | – | CCOc1cc2c(cc1OC)-c1cc(=Nc3c(C)cc(C)cc3C)n(CCNC(=O)c3cccn(C)c3=O)c(=O)n1CC2 [Compound 52] | 0.89 | 0.37
28 | 8.4 | 0.019 | CCOc1cc2c(cc1OC)-c1cc(N(CCNC(=O)c3c[nH]nn3)c3c(C)cc(C)cc3C)nc(=O)n1CC2 [Compound 64] | – | –
29 | – | – | CCOc1cc2c(cc1OC)-c1cc(N(CC(=O)O)c3c(C)cc(C)cc3C)nc(=O)n1CC2 [Compound 76] | 172 | 0.1
30 | 2860 | 0.33 | CCOc1cc2c(cc1OC)-c1cc(=Nc3c(C)cc(C)cc3C)n(CCC(N)C(F)(F)F)c(=O)n1CC2 (stereo not shown) [Compound 79] | – | –
31 | – | – | COc1cc2c(cc1OC)-c1cc(N(CCC#N)c3c(C)cc(C)cc3C)nc(=O)n1CC2 [Compound 1] | 298 | 0.11
32 | – | – | Cc1cc(C)c(N=c2cc3n(c(=O)n2CCNC(N)=O)CCc2cc4c(cc2-3)OCO4)c(C)c1 [Compound 11] | – | 117
33 | 10.8 | 0.036 | CCOc1cc2c(cc1OC)-c1cc(N(CCNC(=O)c3nnc(C)o3)c3c(C)cc(C)cc3C)nc(=O)n1CC2 [Compound 65] | – | –
34 | – | – | COc1cc2c(cc1OC)-c1cc(N(CCNC(N)=O)c3c(C)cc(C)cc3C)nc(=O)n1CC2 [Compound 45] | 100 | 0.032
35 | 1.2 | 0.042 | CCOc1cc2c(cc1OC)-c1cc(N(CCNC(=O)c3ccccn3)c3c(C)cc(C)cc3C)nc(=O)n1CC2 [Compound 63] | – | –
36 | – | – | COc1cc2c(cc1OC)-c1cc(=Nc3c(C)cc(C)cc3C)n(CCNC(=O)c3cnc4n3CCC4)c(=O)n1CC2 [Compound 36] | 530 | 0.9
37 | – | – | CCOc1cc2c(cc1OC)-c1cc(N(CCNC(=O)c3c(O)nnn3C)c3c(C)cc(C)cc3C)nc(=O)n1CC2 [Compound 43] | 13.6 | 0.19
38 | – | – | COc1cc2c(cc1OC)S(=O)(=O)CCn1c-2cc(=Nc2c(C)cc(C)cc2C)n(CCNC(N)=O)c1=O [Compound 21] | 6910 | 1000
39 | – | – | COc1cc2c(cc1OC1CCOC1)CCn1c-2cc(=Nc2c(C)cc(C)cc2C)n(CCNC(N)=O)c1=O (stereo not shown) [Compound 25] | 381 | 4.47
40 | 697 | 0.43 | CCOc1cc2c(cc1OC)-c1cc(=Nc3c(C)cc(C)cc3C)n(CCC(C)(C)O)c(=O)n1CC2 [Compound 54] | – | –
41 | 6730 | 24.7 | CCOc1cc2c(cc1OC)-c1cc(N(c3c(C)cc(C)cc3C)C3CN(C(=O)c4[nH]nnc4C)C3)nc(=O)n1CC2 [Compound 77] | – | –
42 | – | – | COc1cc2c(cc1OC)-c1cc(N(CCNC(=O)c3cccn(C)c3=O)c3c(C)cc(C)cc3C)nc(=O)n1CC2 [Compound 46] | 17.8 | 0.082
43 | – | 72.3 | COc1cc2c(cc1OC)-c1cc(N(c3c(C)cc(C)cc3C)C3CN(C(=O)c4c(O)nnn4C)C3)nc(=O)n1CC2 [Compound 47] | – | –
44 | – | – | CCn1cccc(C(=O)NCCn2c(=Nc3c(C)cc(C)cc3C)cc3n(c2=O)CCc2cc(OC)c(OC)cc2-3)c1=O [Compound 40] | 82.1 | 1.29
45 | – | 1010 | COc1cc2c(cc1OCc1ccccc1)CCn1c-2cc(=Nc2c(C)cc(C)cc2C)n(CCNC(N)=O)c1=O [Compound 24] | – | –
46 | – | – | COc1cc2c(cc1OC)-c1cc(=Nc3c(C)cc(C)cc3C)n(CCNC(=O)NC3CCNCC3)c(=O)n1CC2 [Compound 67] | 3800 | 5.49
47 | – | – | COc1cc2c(cc1OC)-c1cc(=Nc3c(C)cc(C)cc3C)n(CCNC(N)=O)c(=O)n1CCS2 [Compound 20] | 251 | 24.9
48 | – | – | COc1cc2c(cc1OC)-c1cc(=Nc3c(C)cc(C)cc3C)n(CCNC(=O)N3CCOCC3CO)c(=O)n1CC2 (stereo not shown) [Compound 70] | 2830 | 1.24
49 | – | – | COc1cc2c(cc1OC)-c1cc(N(c3c(C)cc(C)cc3C)C3CCN(C(=O)c4c(O)nnn4C)C3)nc(=O)n1CC2 (stereo not shown) [Compound 35] | 1280 | 0.56
50 | 5 | 0.074 | CCOc1cc2c(cc1OC)-c1cc(N(CCN3CCS(=O)(=O)CC3)c3c(C)cc(C)cc3C)nc(=O)n1CC2 [Compound 72] | – | –
51 | – | – | Cc1cc(C)c(N=c2cc3n(c(=O)n2CCNC(N)=O)CCc2cc4c(cc2-3)OCCO4)c(C)c1 [Compound 13] | – | 44.6
52 | – | – | COc1cc2c(cc1OC)-c1cc(=Nc3c(C)cc(C)cc3C)n(CCN3CCn4c(nnc4C(F)(F)F)C3)c(=O)n1CC2 [Compound 34] | – | 6.4

Row | Structure (SMILES) | IC50 (PDE4B1; [1]) [nM] | IC50 (PDE3A; [2]) [nM] | IC50 (PDE4B1) [nM] | IC50 (PDE3A) [nM]
53 | COc1cc2c(cc1OC)-c1c/c(=N\c3c(C)cc(C)cc3C)n(C)c(=O)n1CC2 [Trequinsin Hydrochlorid, Trequinsin hydrochloride, reference compound] | – | 0.227 | – | –
